# US10017506B2, “ATX modulating agents” (BIOGEN MA INC., priority 2012, dated 2018)
# Biological target: T1, Human ATX protein (Homo sapiens, UniProt Q13822)
# T1 construct: made in house
# Assay: ATX biochemical FRET assay with FS-3 substrate
# Conditions: FRET substrate FS-3 2 μM, ATX 1.0 μg/mL, 30 minutes pre-incubation, 2 hours at room temperature; read-out: IC50
# Procedure, shortened: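 Enzyme at 1.0 μg/mL final, pre-incubated with compound (10-point, 3-fold series) for 30 min at RT in Tris pH 7.4 buffer with NaCl, KCl, CaCl2, MgCl2 and 1 mg/mL fatty-acid-free BSA. After FS-3 addition, 2 h at RT protected from light; fluorescence at 485/538 nm.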
row,SMILES,IC50 [µM]
1,"CC(N[C@H]1C[C@@H](C(=O)O)C1(C)C)c1ccc2ccc(O[C@H]3CC[C@@H](C(F)(F)F)CC3)c(C(F)(F)F)c2c1 (stereo partly drawn) [Example 120, (1R,3S)-2,2-dimethyl-3-((1-(8-(trifluoromethyl)-7-((cis-4-(trifluoromethyl)cyclohexyl)oxy)naphthalen-2-yl)ethyl)amino)cyclobutanecarboxylic acid]",≤ 0.1
2,"CC[C@H]1CC[C@@H](Oc2ccc3ccc([C@@H](C)N[C@H]4C[C@@H](C(=O)O)C4(C)C)cc3c2C(F)(F)F)CC1 [Example 118d, (1R,3S)-3-(((R)-1-(7-((cis-4-ethylcyclohexyl)oxy)-8-(trifluoromethyl)naphthalen-2-yl)ethyl)amino)-2,2-dimethylcyclobutanecarboxylic acid]",≤ 0.5
3,"CC(N[C@@H]1C[C@H](C(=O)O)C1(C)C)c1ccc2ccc(O[C@H]3CC[C@@H](C(F)(F)F)CC3)c(C(F)(F)F)c2c1 (stereo partly drawn) [Example 119, (1S,3R)-2,2-dimethyl-3-((1-(8-(trifluoromethyl)-7-((cis-4-(trifluoromethyl)cyclohexyl)oxy)naphthalen-2-yl)ethyl)amino)cyclobutanecarboxylic acid]",≤ 0.1
4,"O=C(O)[C@H]1CC[C@@H](NCc2ccc3ccc(O[C@H]4CC[C@@H](C(F)(F)F)CC4)c(C(F)(F)F)c3c2)CC1 [Example 124, cis-4-(((8-(trifluoromethyl)-7-((cis-4-(trifluoromethyl)cyclohexyl)oxy)naphthalen-2-yl)methyl)amino)cyclohexanecarboxylic acid]",≤ 0.25
5,"CC[C@H]1CC[C@@H](Oc2ccc3ccc([C@@H](C)N[C@H]4CC[C@@H](C(=O)O)CC4)cc3c2C(F)(F)F)CC1 [Example 135b, cis-4-(((R)-1-(7-((cis-4-ethylcyclohexyl)oxy)-8-(trifluoromethyl)naphthalen-2-yl)ethyl)amino)cyclohexanecarboxylic acid]",≤ 0.25
6,"CC(C)[C@H]1CC[C@@H](Oc2ccc3ccc(CN4CCC(C(=O)O)CC4)cc3c2C(F)(F)F)CC1 [Example 106, 1-((7-((cis-4-isopropylcyclohexyl)oxy)-8-(trifluoromethyl)naphthalen-2-yl)methyl)piperidine-4-carboxylic acid]",≤ 0.5
7,CC[C@H]1CC[C@@H](Oc2ccc3ccc(C(C)N[C@H]4C[C@@H](C(=O)O)C4(C)C)cc3c2C(F)(F)F)CC1 (stereo partly shown) [Example 116],≤ 0.1
8,"CC(C)(C)[C@H]1CC[C@H](Nc2cc3cc(C(=O)N[C@H]4CC[C@H](C(=O)O)CC4)ccc3cn2)CC1 [Example 155, trans-4-(3-((trans-4-(tert-butyl)cyclohexyl)amino)isoquinoline-6-carboxamido)cyclohexanecarboxylic acid]",≤ 0.1
9,"O=C(O)C1CCN(Cc2ccc3ccc(O[C@H]4CC[C@@H](C(F)(F)F)CC4)c(C(F)(F)F)c3c2)CC1 [Example 43, 1-((8-(trifluoromethyl)-7-((cis-4-(trifluoromethyl)cyclohexyl)oxy)naphthalen-2-yl)methy 1)piperidine-4-carboxylic acid]",≤ 0.5
10,"O=C(O)C1CCCN(Cc2ccc3ccc(O[C@H]4CC[C@@H](C(F)(F)F)CC4)c(C(F)(F)F)c3c2)CC1 (stereo partly drawn) [Example 123, 1-((8-(trifluoromethyl)-7-((cis-4-(trifluoromethyl)cyclohexyl)oxy)naphthalen-2-yl)methyl)azepane-4-carboxylic acid]",≤ 0.25
11,"CC[C@H]1CC[C@@H](Oc2ccc3ccc([C@@H](C)N[C@H]4C[C@H](C(=O)O)C4(C)C)cc3c2C(F)(F)F)CC1 [Example 118c, (1S,3S)-3-(((R)-1-(7-((cis-4-ethylcyclohexyl)oxy)-8-(trifluoromethyl)naphthalen-2-yl)ethyl)amino)-2,2-dimethylcyclobutanecarboxylic acid]",≤ 0.25
12,"CC[C@H]1CC[C@@H](Oc2ccc3ccc(CN4CCC[C@H](CC(=O)O)C4)cc3c2C(F)(F)F)CC1 [Example 53, 2-((R)-1-((7-((cis-4-ethylcyclohexyl)oxy)-8-(trifluoromethyl)naphthalen-2-yl)methyl)piperidin-3-yl)acetic acid]",≤ 0.5
13,"CC(C)(C)[C@H]1CC[C@H](Nc2cc3cc(C(=O)NC4CCCC(C(=O)O)C4)ccc3cn2)CC1 (stereo partly drawn) [Example 150, 3-(3-((trans-4-(tert-butyl)cyclohexyl)amino)isoquinoline-6-carboxamido)cyclohexanecarboxylic acid]",≤ 0.25
14,"C[C@@H](N[C@H]1C[C@@H](C(=O)O)C1(C)C)c1ccc2ccc(O[C@H]3CC[C@@H](C)CC3)c(C(F)(F)F)c2c1 [Example 114d, (1R,3S)-2,2-dimethyl-3-(((R)-1-(7-((cis-4-methylcyclohexyl)oxy)-8-(trifluoromethyl)naphthalen-2-yl)ethyl)amino)cyclobutanecarboxylic acid]",≤ 0.5

# Same assay, conditions: IC50, FRET substrate FS-3 2 μM, ATX 1.0 μg/mL, 30 minutes pre-incubation, 2 hours at room temperature
row,SMILES,IC50 [µM]
1,"C[C@H]1CC[C@@H](Oc2ccc3ccc(C(=O)N4C5CCCC4CC(C(=O)O)C5)cc3c2C(F)(F)F)CC1 (stereo partly shown) [Example 13, 9-[7-(4-methyl-cyclohexyloxy)-8-trifluoromethyl-naphthalene-2-carbonyl]-9-aza-bicyclo [3.3.1]nonane-3-carboxylic acid]",≤ 0.5
2,"C[C@H](c1ccc2ccc(O[C@H]3CC[C@@H](C(F)(F)F)CC3)c(C(F)(F)F)c2c1)N1C2CCCC1CC(C(=O)O)C2 (stereo partly drawn) [Example 137b, 9-((R)-1-(8-(trifluoromethyl)-7-((cis-4-(trifluoromethyl)cyclohexyl)oxy)naphthalen-2-yl)ethyl)-9-azabicyclo[3.3.1]nonane-3-carboxylic acid]",≤ 0.1
3,"CC(c1ccc2ccc(O[C@H]3CC[C@@H](C(F)(F)F)CC3)c(C(F)(F)F)c2c1)N1C2CCC1CC(C(=O)O)C2 (stereo partly drawn) [Example 12, 8-{1-[7-(cis-4-trifluoromethyl-cyclohexyloxy)-8-trifluoromethyl-naphthalen-2-yl]-ethyl}-8-aza-bicyclo[3.2.1]octane-3-carboxylic acid]",≤ 0.1
4,"C[C@H]1CC[C@@H](Oc2ccc3ccc(CN4C5CCC4CC(C(=O)O)C5)cc3c2Cl)CC1 (stereo partly drawn) [Example 83, 8-((8-chloro-7-((cis-4-methylcyclohexyl)oxy)naphthalen-2-yl)methyl)-8-azabicyclo[3.2.1]octane-3-carboxylic acid]",≤ 0.25
5,"CC(c1ccc2ccc(O[C@H]3CC[C@@H](C(F)(F)F)CC3)c(C#N)c2c1)N1C2CCCC1CC(C(=O)O)C2 (stereo partly drawn) [Example 38, 9-(1-(8-cyano-7-((cis-4-(trifluoromethyl)cyclohexyl)oxy)naphthalen-2-yl)ethyl)-9-azabicyclo[3.3.1]nonane-3-carboxylic acid]",≤ 0.1
6,"CC[C@H]1CC[C@@H](Oc2ccc3ccc(CN4C5CCC4CC(C(=O)O)C5)cc3c2Cl)CC1 (stereo partly drawn) [Example 48, 8-((8-chloro-7-((cis-4-ethylcyclohexyl)oxy)naphthalen-2-yl)methyl)-8-azabicyclo[3.2.1]octane-3-carboxylic acid]",≤ 0.1
7,"CC[C@H]1CC[C@@H](Oc2ccc3ccc(CN4C5CCC4CC(C(=O)O)C5)cc3c2C(F)(F)F)CC1 (stereo partly drawn) [Example 51, 8-((7-((cis-4-ethylcyclohexyl)oxy)-8-(trifluoromethyl)naphthalen-2-yl)methyl)-8-azabicyclo[3.2.1]octane-3-carboxylic acid]",≤ 0.1
8,"CC[C@H]1CC[C@@H](Oc2ccc3ccc([C@H](C)N4C5CCC4CC(C(=O)O)C5)cc3c2C(F)(F)F)CC1 (stereo partly drawn) [Example 144a, 8-((S)-1-(7-((cis-4-ethylcyclohexyl)oxy)-8-(trifluoromethyl)naphthalen-2-yl)ethyl)-8-azabicyclo[3.2.1]octane-3-carboxylic acid]",≤ 0.5
9,"CC(c1ccc2ccc(O[C@H]3CC[C@@H](C(F)(F)F)CC3)c(C#N)c2c1)N1C2CCC1CC(C(=O)O)C2 (stereo partly drawn) [Example 37, 8-(1-(8-cyano-7-((cis-4-(trifluoromethyl)cyclohexyl)oxy)naphthalen-2-yl)ethyl)-8-azabicyclo[3.2.1]octane-3-carboxylic acid]",≤ 0.1
10,"C[C@H]1CC[C@@H](Oc2ccc3ccc(CN4C5CCC4CC(C(=O)O)C5)cc3c2C#N)CC1 (stereo partly drawn) [Example 96, 8-((8-cyano-7-((cis-4-methylcyclohexyl)oxy)naphthalen-2-yl)methyl)-8-azabicyclo[3.2.1]octane-3-carboxylic acid]",≤ 0.25
11,"CC[C@H]1CC[C@@H](Oc2ccc3ccc(CN4C5CCC4CC(C(=O)O)C5)cc3c2C#N)CC1 (stereo partly drawn) [Example 70, 8-((8-cyano-7-((cis-4-ethylcyclohexyl)oxy)naphthalen-2-yl)methyl)-8-azabicyclo[3.2.1]octane-3-carboxylic acid]",≤ 0.1
12,"CC(c1ccc2ccc(O[C@H]3CC[C@@H](C(F)(F)F)CC3)c(Cl)c2c1)N1C2CCC1CC(C(=O)O)C2 (stereo partly drawn) [Example 29, 8-(1-(8-chloro-7-((cis-4-(trifluoromethyl)cyclohexyl)oxy)naphthalen-2-yl)ethyl)-8-azabicyclo[3.2.1]octane-3-carboxylic acid]",≤ 0.25
13,"CC[C@H]1CC[C@@H](Oc2ccc3ccc(CN4C5CCCC4CC(C(=O)O)C5)cc3c2C#N)CC1 (stereo partly drawn) [Example 71, 9-((8-cyano-7-((cis-4-ethylcyclohexyl)oxy)naphthalen-2-yl)methyl)-9-azabicyclo[3.3.1]nonane-3-carboxylic acid]",≤ 0.1
14,"CC[C@H]1CC[C@@H](Oc2ccc3ccc(CN4C5CCCC4CC(C(=O)O)C5)cc3c2C(F)(F)F)CC1 (stereo partly drawn) [Example 52, 9-((7-((cis-4-ethylcyclohexyl)oxy)-8-(trifluoromethyl)naphthalen-2-yl)methyl)-9-azabicyclo[3.3.1]nonane-3-carboxylic acid]",≤ 0.1
